{"source": "paper PMC2746281", "about": "(PLoS ONE, 2009)", "key": {"[1]": {"system": "cultured human lymphocytes", "experiment": "Chromosome aberration test in cultured human lymphocytes", "type": "cell-based", "conditions": "our unpublished results"}, "[2]": {"target": "Epidermal growth factor receptor (Homo sapiens, UniProt P00533)", "sequence (P00533 664-1210)": "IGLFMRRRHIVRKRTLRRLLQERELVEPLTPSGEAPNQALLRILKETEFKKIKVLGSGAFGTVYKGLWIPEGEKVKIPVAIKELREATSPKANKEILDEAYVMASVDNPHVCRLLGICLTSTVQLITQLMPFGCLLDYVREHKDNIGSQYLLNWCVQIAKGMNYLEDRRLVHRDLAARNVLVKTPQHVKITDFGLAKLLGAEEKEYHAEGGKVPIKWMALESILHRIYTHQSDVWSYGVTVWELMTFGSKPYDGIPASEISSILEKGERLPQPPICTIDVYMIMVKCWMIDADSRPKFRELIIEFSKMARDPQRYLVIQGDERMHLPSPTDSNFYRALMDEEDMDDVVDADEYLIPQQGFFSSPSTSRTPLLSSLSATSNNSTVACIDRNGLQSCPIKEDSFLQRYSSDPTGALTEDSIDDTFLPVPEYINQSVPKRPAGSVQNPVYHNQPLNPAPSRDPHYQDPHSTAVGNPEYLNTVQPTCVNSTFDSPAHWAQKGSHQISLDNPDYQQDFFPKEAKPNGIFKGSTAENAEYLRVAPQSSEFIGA", "experiment": "Recombinant kinase ELISA assay, EGFR", "type": "biochemical", "parameters": "The cDNA encoding the EGF receptor (664–1210); 6xHN (N); made in house; host or cells: baculovirus, Sf9 insect cells", "conditions": "recombinant human enzyme; ELISA-based assay, poly(Glu,Tyr 4:1) substrate", "method": "(§1) Full details for the generation of recombinant human KIT intracellular domain and other protein kinases (including Lyn, platelet derived growth factor receptor β, epidermal growth factor receptor, fibroblast growth factor receptor 1, Src, HCK, PYK, FES, Btk, Bmx, c-Ret, c-Fms, Syk, and c-Met) are provided in the Supplemental Methods (see Supporting Information; Methods S1). Experiments on ABL1, Akt1, protein kinase C-α, insulin-like growth factor receptor 1, and Pim1 were carried out by Proqinase (Germany). All other recombinant protein kinases were performed in-house using an enzyme-linked immunoassay; experimental details are provided in the Supplemental Methods (see Supporting Information; Methods S1).\nA 96-well microtitre plate (Immulon 2HB; ThermoLifeScience, Finland) was coated overnight with 0.25 mg/ml poly(Glu,Tyr 4:1), rinsed twice with 250 µl of washing buffer (10 mM phosphate-buffered saline [pH 7.4] and 0.05% Tween 20) and dried for 2 hours at room temperature. […] Reactions were initiated upon introduction of the enzyme and terminated with the addition of one reaction volume (50 μl) of 100 mM EDTA per 5 M urea mix. […] The final reaction product was quantified by spectrophotometry at 450 nm."}, "[3]": {"system": "EOL1 cells expressing the FIP1L1-PDGFRα chimeric protein", "experiment": "EOL1 cell proliferation", "type": "cell-based", "conditions": "Homo sapiens, EOL1, read-out: IC50, inhibition of proliferation in EOL1 cells", "method": "Figures 5C), a hypereosinophilic tumour cell line expressing the FIP1L1-PDGFRα chimeric protein, which is associated with chronic eosinophilic leukaemia.\nCell growth was assessed by WST-1 colorimetric assay. […] (D) Western blotting analysis of EOL1 tyrosine phosphorylation. MW = molecular weight markers."}, "[4]": {"target": "T1, Jak1 (Homo sapiens, UniProt P23458)", "T1 construct": "expressed in transfected cells; host or cells: Ba/F3", "T1 sequence (P23458 whole entry, species assumed)": "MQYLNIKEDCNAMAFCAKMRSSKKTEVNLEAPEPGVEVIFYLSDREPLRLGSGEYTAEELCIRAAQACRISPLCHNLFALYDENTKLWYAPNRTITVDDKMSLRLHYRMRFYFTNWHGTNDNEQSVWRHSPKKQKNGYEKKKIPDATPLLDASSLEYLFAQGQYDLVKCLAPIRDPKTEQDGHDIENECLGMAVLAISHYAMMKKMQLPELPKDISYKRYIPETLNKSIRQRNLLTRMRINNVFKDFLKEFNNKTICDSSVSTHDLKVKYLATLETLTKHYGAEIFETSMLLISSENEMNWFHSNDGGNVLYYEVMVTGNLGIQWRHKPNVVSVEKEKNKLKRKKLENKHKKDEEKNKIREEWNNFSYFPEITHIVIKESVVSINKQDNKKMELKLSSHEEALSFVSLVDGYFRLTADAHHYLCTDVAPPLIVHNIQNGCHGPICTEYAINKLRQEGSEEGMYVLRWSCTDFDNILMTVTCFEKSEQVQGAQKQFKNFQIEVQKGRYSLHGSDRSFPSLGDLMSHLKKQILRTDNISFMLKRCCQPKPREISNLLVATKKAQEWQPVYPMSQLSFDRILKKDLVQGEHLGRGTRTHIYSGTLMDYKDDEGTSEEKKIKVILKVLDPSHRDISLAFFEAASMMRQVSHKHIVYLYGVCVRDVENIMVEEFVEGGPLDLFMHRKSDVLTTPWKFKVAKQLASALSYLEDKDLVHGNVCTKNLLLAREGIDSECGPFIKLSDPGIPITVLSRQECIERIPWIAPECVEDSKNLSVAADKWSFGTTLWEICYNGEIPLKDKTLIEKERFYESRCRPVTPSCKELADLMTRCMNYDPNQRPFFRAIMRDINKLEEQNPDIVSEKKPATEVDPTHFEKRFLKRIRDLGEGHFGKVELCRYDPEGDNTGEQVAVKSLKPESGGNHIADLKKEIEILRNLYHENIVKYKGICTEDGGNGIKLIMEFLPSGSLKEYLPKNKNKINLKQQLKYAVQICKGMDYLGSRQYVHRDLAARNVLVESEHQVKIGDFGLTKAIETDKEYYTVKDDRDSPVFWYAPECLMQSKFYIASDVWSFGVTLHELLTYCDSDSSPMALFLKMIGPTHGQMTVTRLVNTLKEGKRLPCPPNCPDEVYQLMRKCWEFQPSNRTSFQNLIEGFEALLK", "experiment": "Ba/F3 cell proliferation (WST-1), Jak1", "conditions": "Ba/F3 cells expressing the enzyme, read-out: Cell-based assay IC50, Jak1"}, "[5]": {"target": "PDGFRβ (Homo sapiens, UniProt P09619)", "sequence (P09619 554-1106)": "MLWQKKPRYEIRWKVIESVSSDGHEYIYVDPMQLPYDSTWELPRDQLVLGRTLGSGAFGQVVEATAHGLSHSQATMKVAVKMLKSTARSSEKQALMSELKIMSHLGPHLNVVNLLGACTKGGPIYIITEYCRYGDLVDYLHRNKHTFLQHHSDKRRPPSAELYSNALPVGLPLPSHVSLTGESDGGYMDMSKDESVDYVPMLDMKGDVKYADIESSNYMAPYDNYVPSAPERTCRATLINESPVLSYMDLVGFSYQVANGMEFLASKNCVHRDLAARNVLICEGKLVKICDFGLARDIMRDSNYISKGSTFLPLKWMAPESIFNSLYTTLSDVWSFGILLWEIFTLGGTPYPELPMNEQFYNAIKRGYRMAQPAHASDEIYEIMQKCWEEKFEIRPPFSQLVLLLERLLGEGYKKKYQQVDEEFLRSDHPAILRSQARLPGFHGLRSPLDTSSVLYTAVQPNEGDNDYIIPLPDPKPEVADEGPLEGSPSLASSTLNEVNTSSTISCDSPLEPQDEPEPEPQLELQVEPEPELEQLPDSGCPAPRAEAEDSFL", "experiment": "Recombinant kinase ELISA assay, PDGFRβ", "type": "biochemical", "parameters": "PDGF receptor β (residues 554–1106; BC032224); 6xHN (N); made in house; host or cells: baculovirus, Sf9 insect cells", "conditions": "recombinant human enzyme; ELISA-based assay, poly(Glu,Tyr 4:1) substrate", "method": "as §1"}, "[6]": {"system": "human cord-blood-derived mast cells (CBMC)", "experiment": "FcεRI-mediated degranulation (β-hexosaminidase release) of IgE-anti IgE activated CBMC", "type": "cell-based", "conditions": "Mast cell, 0.5 h, 30 minutes of stimulation", "method": "(see Supporting Information; Methods S1). […] Assays of β-hexosaminidase release and TNF-α release were made by stimulating the CBMC with 1 µg/ml of goat anti-human IgE (Vector Laboratories) for 30 minutes or 4 hours, respectively. β-hexosaminidase was measured in the supernatant and in the sonicated cell pellets and its net release calculated. For TNF-α determination, the cell-free supernatants were collected by centrifugation and frozen at −80°C until determination of mediator content by the use of a specific ELISA kit according to manufacturer's instructions (Coulter, France). All assays were performed in duplicate and counts were repeated twice for each well.\nHuman CBMC were produced by long-term culture of CD34+ progenitors purified from normal cord-blood. […] At the beginning of the culture, rhIL-3 (1 ng/ml) (R&D Systems Europe, France) was also added to induce maximal expansion of haematopoietic progenitors. After 3 days the IL-3 was removed and 4 days later cells were transferred to a complete serum-free medium containing rmSCF at 100 ng/ml, which was renewed every 7 days thereafter. After 8 weeks in culture ≥99% of the cells were identified as being mast cells by May-Grünwald-Giemsa staining of cytocentrifuged samples."}, "[7]": {"target": "T2, Bmx (Homo sapiens, UniProt P51813)", "T2 construct": "Bmx (2–675; BC016652); 6xHN (N); made in house; host or cells: baculovirus, Sf9 insect cells", "T2 sequence (P51813 2-675)": "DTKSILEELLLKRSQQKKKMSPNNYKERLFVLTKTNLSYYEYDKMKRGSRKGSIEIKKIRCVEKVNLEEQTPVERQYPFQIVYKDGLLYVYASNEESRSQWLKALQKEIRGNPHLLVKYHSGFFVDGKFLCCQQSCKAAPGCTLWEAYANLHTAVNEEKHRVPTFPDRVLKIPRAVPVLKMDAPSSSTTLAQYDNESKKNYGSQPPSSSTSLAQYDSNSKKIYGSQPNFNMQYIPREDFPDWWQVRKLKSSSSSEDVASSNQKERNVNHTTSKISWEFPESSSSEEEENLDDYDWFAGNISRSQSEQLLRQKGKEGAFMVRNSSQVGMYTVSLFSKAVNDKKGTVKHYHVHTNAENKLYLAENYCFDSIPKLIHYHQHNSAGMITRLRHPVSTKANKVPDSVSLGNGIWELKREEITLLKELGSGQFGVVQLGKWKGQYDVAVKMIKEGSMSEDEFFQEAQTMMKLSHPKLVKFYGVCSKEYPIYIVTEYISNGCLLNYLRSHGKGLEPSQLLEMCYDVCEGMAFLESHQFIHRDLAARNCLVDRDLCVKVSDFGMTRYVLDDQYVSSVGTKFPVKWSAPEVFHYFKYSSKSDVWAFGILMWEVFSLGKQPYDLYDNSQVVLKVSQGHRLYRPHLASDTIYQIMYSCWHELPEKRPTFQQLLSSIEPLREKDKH", "experiment": "Recombinant kinase ELISA assay, Bmx", "type": "biochemical", "conditions": "recombinant human enzyme; ELISA-based assay, poly(Glu,Tyr 4:1) substrate", "method": "as §1\n(§2) The sequences encoding PDGF receptor β (residues 554–1106; GenBank accession no. BC032224), Lyn B (2–583; accession no. BC059394), fibroblast growth factor receptor 1 (572–959; accession no. BC018128), Src (2–536; accession no. BC011566), Btk (2–659; accession no. BC109079), Bmx (2–675; accession no. BC016652), c-Ret (713–1114; accession no. BC004257), c-Fms (538–972; BC047531), Syk (2–612; BC011399), Hck (2-526; accession no. BC014435), Fes (2-822; accession no. BC035357), PYK2 (2-1006; accession no. BC042599) and c-Met (949–1398; accession no. lifeseq3489592) were amplified by PCR from IMAGE cDNA clones purchased from Openbiosystems. […]"}, "[8]": {"target": "T3, c-Ret (Homo sapiens, UniProt P07949)", "T3 construct": "c-Ret (713–1114; BC004257); 6xHN (N); made in house; host or cells: baculovirus, Sf9 insect cells", "T3 sequence (P07949 713-1072 isoform P07949-2)": "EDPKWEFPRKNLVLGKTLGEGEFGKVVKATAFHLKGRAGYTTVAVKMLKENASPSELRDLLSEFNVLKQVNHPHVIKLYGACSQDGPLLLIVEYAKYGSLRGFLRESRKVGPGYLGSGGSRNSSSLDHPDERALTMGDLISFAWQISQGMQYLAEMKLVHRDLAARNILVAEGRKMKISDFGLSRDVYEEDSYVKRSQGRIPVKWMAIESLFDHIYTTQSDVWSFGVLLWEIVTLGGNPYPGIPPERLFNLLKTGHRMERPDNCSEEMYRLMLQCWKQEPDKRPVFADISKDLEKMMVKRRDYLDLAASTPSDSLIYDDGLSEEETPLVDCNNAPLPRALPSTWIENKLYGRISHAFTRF", "experiment": "Recombinant kinase ELISA assay, c-Ret", "type": "biochemical", "conditions": "recombinant human enzyme; ELISA-based assay, poly(Glu,Tyr 4:1) substrate", "method": "as §1, §2"}, "[9]": {"target": "T4, Pim1 (Homo sapiens, UniProt P11309)", "T4 construct": "purchased Proqinase (Germany)", "T4 sequence (P11309 whole entry)": "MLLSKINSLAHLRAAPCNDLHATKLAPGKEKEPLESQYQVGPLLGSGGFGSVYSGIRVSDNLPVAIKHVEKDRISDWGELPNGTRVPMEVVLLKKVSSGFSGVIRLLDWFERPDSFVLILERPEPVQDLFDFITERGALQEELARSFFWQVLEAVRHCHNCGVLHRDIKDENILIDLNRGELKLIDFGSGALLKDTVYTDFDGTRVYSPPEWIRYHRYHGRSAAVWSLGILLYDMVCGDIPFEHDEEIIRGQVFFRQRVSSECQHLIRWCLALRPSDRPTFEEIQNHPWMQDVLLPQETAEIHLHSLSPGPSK", "experiment": "Recombinant kinase screen (Proqinase), Pim1", "type": "biochemical", "conditions": "recombinant human enzyme; single experiment, kinase screen by Proqinase", "method": "as §1"}}}
{"molecule": "CS(=O)(=O)O.CS(=O)(=O)O.Cc1ccc(NC(=O)c2ccc(CN3CCN(C)CC3)cc2)cc1Nc1nc(-c2cccnc2)cs1", "note": "[masitinib, 4-(4-methylpiperazin-1-ylmethyl)-N-[4-methyl-3-(4-pyridin-3ylthiazol-2-ylamino)phenyl]benzamide-mesylate methane sulfonic acid salt]", "values": [{"measurement": "chromosome aberrations", "setting": "[1]", "result": "does not cause chromosome aberrations"}, {"measurement": "IC50", "setting": "[2]", "result": "> 10", "unit": "µM"}, {"measurement": "IC50", "setting": "[3]", "result": "0.0002 ± 0.0001", "unit": "µM"}, {"measurement": "IC50", "setting": "[4]", "result": "8 ± 1.4", "unit": "µM"}, {"measurement": "IC50", "setting": "[5]", "result": "0.8 ± 0.12", "unit": "µM"}, {"measurement": "inhibition at 0.1 µM", "setting": "[6]; 0.1 µM", "result": 7, "unit": "%"}, {"measurement": "inhibition at 1 µM", "setting": "[6]; 1.0 µM", "result": 18, "unit": "%"}, {"measurement": "inhibition at 10 µM", "setting": "[6]; 10 µM", "result": 35, "unit": "%"}, {"measurement": "IC50", "setting": "[7]", "result": "> 10", "unit": "µM"}, {"measurement": "IC50", "setting": "[8]", "result": "> 10", "unit": "µM"}, {"measurement": "IC50", "setting": "[9]", "result": "> 10", "unit": "µM"}]}
